US20040034022A1, “Polymorphic forms/hydrates of n-[4-(3-chloro-4-fluorophenylamino)-7-(3-morpholin-4-ylpropoxy)-quinazolin-6-yl]-acrylamide dihydrochloride” (priority 2000, published 2004)
Structures can show the parent of a compound that is named as a salt.

Experiment: Temperature stress experiments: thermal stability of the solid forms, purity by HPLC
Type: physicochemical
Details: for HPLC Purity Start: solid form before temperature stress; for HPLC Purity: solid
Text: Temperature Stress Experiments For the investigation of the thermal stability, the solid forms A, B and M are heated in open test tubes (l: 110 mm, d: 5 mm) or in test tubes closed by means of a glass stamp in an oil bath at temperatures and for a period of time as given in the Table. Subsequently, the purity of the remaining products is investigated by means of HPLC methods (column: LunaRP18 (25×0.46 cm); mobile phase: acetonitrile:methanol: 0.02M aq. ammonium acetate:triethylamine (55:5:40:0.05). (s): test tube with glass stamp

In the case of `C=CC(=O)Nc1cc2c(Nc3ccc(F)c(Cl)c3)ncnc2cc1OCCCN1CCOCC1` [Form A, N-[4-(3-chloro-4-fluorophenylamino)-7-(3-morpholin-4-ylpropoxy)-quinazolin-6-yl]-acrylamide Dihydrochloride Form A], the “HPLC Purity Start” value (listed as A) is reported as 99.28 rel %, the “HPLC Purity” value (16 hr, 100° C., then 8 hr, 150° C., (s): test tube with glass stamp, listed as A) is reported as 23.45 (s) rel % and the “HPLC Purity” value (16 hr, 100° C., then 8 hr, 150° C., open test tube, listed as A) is reported as 25.28 rel %. The “HPLC Purity” value (7 d, 80° C., (s): test tube with glass stamp, listed as A) was 99.02 (s) rel % and the “HPLC Purity” value (7 d, 80° C., open test tube, listed as A) was 97.51 rel %.
For `C=CC(=O)Nc1cc2c(Nc3ccc(F)c(Cl)c3)ncnc2cc1OCCCN1CCOCC1` [Form B, N-[4-(3-chloro-4-fluorophenylamino)-7-(3-morpholin-4-ylpropoxy)-quinazolin-6-yl]-acrylamide Dihydrochloride Form B], the “HPLC Purity Start” value (listed as B) was 99.77 rel %, the “HPLC Purity” value (16 hr, 100° C., then 8 hr, 150° C., (s): test tube with glass stamp, listed as B) was 75.28 (s) rel % and the “HPLC Purity” value (16 hr, 100° C., then 8 hr, 150° C., open test tube, listed as B) was 75.32 rel %. The “HPLC Purity” value (7 d, 80° C., (s): test tube with glass stamp, listed as B) was 84.40 (s) rel % and the “HPLC Purity” value (7 d, 80° C., open test tube, listed as B) was 89.39 rel %.
In the case of `C=CC(=O)Nc1cc2c(Nc3ccc(F)c(Cl)c3)ncnc2cc1OCCCN1CCOCC1` [Form M, N-[4-(3-chloro-4-fluorophenylamino)-7-(3-morpholin-4-ylpropoxy)-quinazolin-6-yl]-acrylamide Dihydrochloride Form M], the “stability towards the heating of the solid substance” value (heating at 80° C. or 150° C., in comparison to the forms A or B) is reported as “more stable form”, the “HPLC Purity Start” value (listed as M) is reported as 99.49 rel % and the “HPLC Purity” value (16 hr, 100° C., then 8 hr, 150° C., (s): test tube with glass stamp, listed as M) is reported as 99.43 (s) rel %. For the same compound, the “HPLC Purity” value (16 hr, 100° C., then 8 hr, 150° C., open test tube, listed as M) was 99.43 rel %, the “HPLC Purity” value (8 d, 80° C., (s): test tube with glass stamp) was 99.61 (s) rel % and the “HPLC Purity” value (8 d, 80° C., open test tube) was 99.62 rel %.
